The record followed here is patent publication US20110159603A1, “FLUORESCENT PROBE SPECIFIC TO HYDROGEN PEROXIDE” (THE UNIVERSITY OF TOKYO, priority 2008, published 2011).

The subject of assay [1] is RAW264.7 cells. Put plainly: Detection of hydrogen peroxide in live cells by fluorescence microscopy. Type of assay: cell-based. The note with it: RAW264.7 cells stimulated with LPS 50 μg/ml and IFN-γ 100 unit/ml for 12 hours vs non-stimulated; observed 2 hours after loading; excitation 470 to 495 nm, fluorescence 510 to 550 nm. The protocol:
It was confirmed that Compound 5 was also usable for detection of hydrogen peroxide in live cells. The RAW264.7 cells were stimulated with a lipopolysaccharide (LPS, 50 μg/ml) and interferon-γ (IFN-γ, 100 unit/ml) for 12 hours, then a diacetylated compound of Compound 5 was loaded on the cells, and 2 hours later, the cells were observed under a fluorescence microscope using the U-MNIBA2 filter set produced by Olympus Corporation (excitation wavelength: 470 to 495 nm, fluorescence wavelength: 510 to 550 nm) (FIG. 2).

Assay [2] in a line: Relative fluorescence intensity with superoxide from hypoxanthine/xanthine oxidase (HPX/x.o.) system. The following applies: compound 10 μM.
The nature of assay [3]: Fluorescence spectrum change on adding hydrogen peroxide. The following applies: excitation 490 nm. The protocol:
[The source words this procedure for another target and reports this target under the same test.] (§1) The addition of hydroxyl radical (10 μM) to the test system was performed by the method of adding hydrogen peroxide (10 μM) to a solution of Compound 5, and then immediately adding a solution of iron(II) perchlorate (10 μM) in purified water to the mixture to generate hydroxyl radicals by the Fenton reaction.

Assay [4] in a line: Relative fluorescence intensity at 520 nm on adding other reactive oxygen species. The following applies: hydroxyl radical 10 μM, peroxynitrite 10 μM, hypochlorite ion 10 μM, NOC13 100 μM or EP-1 100 μM; compound 1 μM; excitation 490 nm. The protocol:
as §1

On to `N#Cc1ccc(C(=O)C(=O)c2ccc(-c3c4ccc(=O)cc-4oc4cc(O)ccc34)c(C(=O)O)c2)cc1` [Compound 5, 5-(4-cyanobenzoyl)carbonylfluorescein], for which, in assay [1], the “fluorescence intensity in cells” value is “higher when loading Compound 5 on the stimulated cells (B) than on the non-stimulated cells (A)”. The “relative fluorescence intensity at 520 nm” value in assay [2] (HPX/x.o. system with SOD 60 Unit/L added) is “no significant change in the degree of the increase of fluorescence intensity”; in assay [2] (HPX/x.o. system with catalase 100 Unit/L added), “reduced to around the level of the control”; in assay [2] (superoxide 10 μM, HPX/x.o. system (x.o. 2.38 mUnit/L, HPX 10 μM), versus control), “higher in the case using the HPX/x.o. system than in the case of the control”; in assay [3] (hydrogen peroxide 100 μM for 30 minutes, compound 1 μM), “increase of fluorescence intensity was observed only when hydrogen peroxide was added”; in assay [4], “no increase of fluorescence intensity”. Further, the “change of the fluorescence spectrum over time” value in assay [3] (hydrogen peroxide 100 μM added to compound 1 μM, after 5, 15, 30 and 60 minutes) is “increase of fluorescence intensity was observed over time”.
